The source of these data is patent publication US9708639B2, “Method for quantifying amino acids with pyrophosphate” (TOYAMA PREFECTURE, priority 2012, dated 2017).

The assay addresses T1, Thermotoga-derived LysRS (Thermotoga maritima, UniProt Q9X231).
T1 construct: His tag (C); made in house; host or cells: Escherichia coli BL21 (DE3)
T1 sequence (Q9X231 1-502): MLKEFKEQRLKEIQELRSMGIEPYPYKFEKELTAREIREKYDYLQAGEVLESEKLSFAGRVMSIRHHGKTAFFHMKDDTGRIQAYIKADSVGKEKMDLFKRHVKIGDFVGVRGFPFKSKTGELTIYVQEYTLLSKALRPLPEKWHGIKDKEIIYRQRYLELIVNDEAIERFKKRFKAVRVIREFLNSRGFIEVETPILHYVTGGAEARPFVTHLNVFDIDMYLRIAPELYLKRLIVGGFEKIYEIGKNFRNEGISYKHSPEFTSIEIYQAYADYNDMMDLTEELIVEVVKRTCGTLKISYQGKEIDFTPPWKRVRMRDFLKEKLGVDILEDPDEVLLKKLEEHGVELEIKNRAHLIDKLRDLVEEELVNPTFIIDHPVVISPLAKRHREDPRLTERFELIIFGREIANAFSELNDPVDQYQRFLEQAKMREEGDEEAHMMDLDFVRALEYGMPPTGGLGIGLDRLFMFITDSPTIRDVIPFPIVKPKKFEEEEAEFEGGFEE
Nature of the assay: Calibration curve for amino acid by coupled PPDK and LDH. It is filed as biochemical, Thermotoga maritima MSB8 strain. The following applies: Lys 0 to 200 μM; hydroxylamine 1000 mM; LysRS 0.1 mg/ml (10 mU/ml); 30° C. As to the method:
A test sample containing an amino acid as the measurement subject and a reaction mixture for quantifying amino acid having the following composition were mixed. The mixture was left standing at 30° C. to allow the AARS, PPDK, and LDH reactions to advance, and decrease of the absorbance at 340 nm was measured. The volume of the mixture was 200 μl, and after the reaction mixture was put into the wells of a 96-well microplate, the absorbance was measured with a microplate reader.
Reaction mixture for quantifying amino acid: 20 mM Tris-HCl (pH 7.0), 10 mM MgCl2, 10 mM NH4Cl, 0.3 mM PEP, 0.3 mM NADH, 0.2 mM ATP, 0.2 mM AMP, 70 mU/ml PPDK, 50 U/ml LDH, and AARS (concentrations are final concentrations obtained after mixing with test sample)
Calibration curves were prepared by using the AARS activity measurement method described in 8. and standard Cys, Lys, Ser, and Tyr solutions as test samples. The concentrations of the aforementioned amino acids were set so that the final concentrations thereof are in the range of 0 to 200 μM. The hydroxylamine concentration was 200 mM for the samples used for the Tyr calibration curve, or 1000 mM for the samples used for the Cys, Lys, and Ser calibration curves. The Thermotoga-derived CysRS, LysRS, SerRS, TyrRS, and the Thermus-derived TyrRS were added to the reaction mixture at final concentrations of 0.2 (7 mU/ml), 0.1 (10 mU/ml), 0.2 (8 mU/ml), 0.4 (40 mU/ml), and 0.1 mg/ml, respectively.
Calibration curves could be similarly prepared when adding pyrophosphate instead of the aforementioned amino acids, but the inclinations of the Lys, Ser, and Tyr calibration curves (absorbance change per mM of substrate) were 80% or more of the inclination of the pyrophosphate calibration curve. […] The inclination of the Cys calibration curve was slightly smaller than those of the other calibration curves, and it is considered that this is because a part of cysteine in the test sample was converted into cystine by air oxidation, and the real concentration of cysteine was reduced.

`NCCCC[C@H](N)C(=O)O` [Lys, L-lysine]: the “inclination of calibration curve relative to inclination of the pyrophosphate calibration curve” value is recorded as no less than 80%.
